Experimental data from ChEMBL document CHEMBL1201862, “PubChem BioAssay data set” (2004).
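Each compound was tested at five concentrations against cells in 96-well plates for 48 hours. The concentration for 50% growth inhibition is given as GI50.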 Calls of active or inactive are those of the source. Rule as the data show it: active = GI50 up to about 1.1 µM and inactive = higher.

Legend:
Experiment in all cases: NCI tumour cell line growth inhibition, 48 h
NCI-H226 = tested on: NCI-H226
OVCAR-4 = tested on: OVCAR-4
HL-60 = tested on: HL-60
IGROV-1 = tested on: IGROV-1
MCF7 = tested on: MCF7
Malme-3M = tested on: Malme-3M
TK-10 = tested on: TK-10
HT-29 = tested on: HT-29
OVCAR-5 = tested on: OVCAR-5
OVCAR-8 = tested on: OVCAR-8
SN12C = tested on: SN12C
SK-MEL-28 = tested on: SK-MEL-28
SF-295 = tested on: SF-295
HCT-116 = tested on: HCT-116
NCI/ADR-RES = tested on: NCI/ADR-RES
OVCAR-3 = tested on: OVCAR-3
Hs-578T = tested on: Hs-578T
HOP-92 = tested on: HOP-92
UACC-257 = tested on: UACC-257

Measured: GI50

CNc1ccc(Cl)cc1S(=O)(=O)c1ccccc1[N+](=O)[O-]
inactive: NCI-H226 > 100 µM | OVCAR-4 99.3 µM | HL-60 > 100 µM | IGROV-1 > 100 µM | MCF7 > 100 µM | Malme-3M > 100 µM | TK-10 > 100 µM | HT-29 > 100 µM | OVCAR-5 > 100 µM | OVCAR-8 > 100 µM | SN12C > 100 µM | SK-MEL-28 > 100 µM | SF-295 > 100 µM | HCT-116 > 10 µM | NCI/ADR-RES > 100 µM | OVCAR-3 > 100 µM | Hs-578T 31.1 µM

O=c1[nH]c2ccc(Cl)cc2c2oc(-c3ccccc3)nc12
inactive: NCI-H226 21.2 µM | OVCAR-4 18.1 µM | IGROV-1 29.1 µM | MCF7 6.07 µM | Malme-3M 29.3 µM | TK-10 35.5 µM | HT-29 83.9 µM | OVCAR-5 52.1 µM | HOP-92 28.4 µM | OVCAR-8 5.62 µM | UACC-257 52.7 µM | SN12C 21.7 µM | SF-295 21.6 µM | HCT-116 16.4 µM | NCI/ADR-RES 29.5 µM | OVCAR-3 21.2 µM | Hs-578T 15.7 µM

Cc1ccc(-c2c(C#N)c(-c3ccc(C)cc3)n(NS(=O)(=O)c3ccccc3)c(=O)c2C#N)cc1
inactive: NCI-H226 > 100 µM | OVCAR-4 40.6 µM | IGROV-1 44.5 µM | MCF7 24 µM | Malme-3M 86.5 µM | TK-10 76.2 µM | HT-29 41.7 µM | OVCAR-5 > 100 µM | HOP-92 28.6 µM | OVCAR-8 69.2 µM | UACC-257 86.1 µM | SN12C 62.2 µM | SK-MEL-28 49.2 µM | SF-295 32.5 µM | HCT-116 31.1 µM | NCI/ADR-RES 50.5 µM | Hs-578T > 100 µM

O=C(O)/C=C\C(=O)Nn1c(Cc2ccc(Cl)cc2)n[nH]c1=O
inactive: NCI-H226 > 100 µM | OVCAR-4 > 100 µM | HL-60 > 100 µM | IGROV-1 > 100 µM | MCF7 > 100 µM | Malme-3M > 100 µM | TK-10 > 100 µM | HT-29 > 100 µM | OVCAR-5 > 100 µM | OVCAR-8 > 100 µM | UACC-257 > 100 µM | SN12C > 100 µM | SF-295 > 100 µM | HCT-116 > 100 µM | NCI/ADR-RES > 100 µM | OVCAR-3 > 100 µM | Hs-578T > 100 µM

CC#CC(=O)SCCNC(=O)CC
inactive: NCI-H226 > 10 µM | OVCAR-4 4.48 µM | HL-60 > 5.57 µM | IGROV-1 > 10 µM | MCF7 4.41 µM | Malme-3M > 10 µM | TK-10 > 10 µM | HT-29 > 10 µM | OVCAR-5 > 10 µM | OVCAR-8 > 10 µM | UACC-257 > 10 µM | SN12C > 10 µM | SK-MEL-28 > 8.71 µM | SF-295 > 10 µM | HCT-116 8.51 µM | NCI/ADR-RES > 10 µM | OVCAR-3 > 10 µM | Hs-578T > 10 µM

COc1ccc(-n2cnc3c(NC(C)(C)C(=O)O)ncnc32)cc1
inactive: NCI-H226 > 100 µM | OVCAR-4 > 100 µM | IGROV-1 > 100 µM | MCF7 > 100 µM | TK-10 > 100 µM | HT-29 > 100 µM | OVCAR-5 > 100 µM | HOP-92 > 100 µM | OVCAR-8 > 100 µM | UACC-257 > 100 µM | SN12C > 100 µM | SK-MEL-28 > 100 µM | SF-295 > 100 µM | HCT-116 > 100 µM | NCI/ADR-RES > 100 µM | OVCAR-3 > 100 µM | Hs-578T > 100 µM

Clc1cc(N/N=C(/c2ccccc2)c2ncccn2)ncn1
inactive: NCI-H226 56.4 µM | OVCAR-4 22.1 µM | IGROV-1 17.5 µM | MCF7 14.8 µM | HT-29 2.58 µM | OVCAR-5 85.5 µM | HOP-92 14.7 µM | OVCAR-8 16.5 µM | UACC-257 20.9 µM | SN12C 29.2 µM | SK-MEL-28 36.9 µM | SF-295 24.6 µM | HCT-116 7.26 µM | NCI/ADR-RES 20.1 µM | OVCAR-3 20.2 µM | Hs-578T 24.5 µM

CCOC(=O)c1ccc(N(C)Cc2cnc3nc(N)nc(N)c3n2)cc1
inactive: NCI-H226 20.1 µM | HL-60 80.4 µM | IGROV-1 5.71 µM | MCF7 12.6 µM | Malme-3M 16.6 µM | TK-10 13.8 µM | HT-29 7.98 µM | OVCAR-5 17.4 µM | OVCAR-8 7.64 µM | UACC-257 9.77 µM | SN12C 40.4 µM | SK-MEL-28 17.9 µM | SF-295 10.2 µM | HCT-116 3.66 µM | NCI/ADR-RES 7.8 µM | OVCAR-3 14.5 µM | Hs-578T 12.7 µM

CC(=O)N1c2ccccc2C(C)C1c1[nH]c2ccccc2c1C (stereo not given)
inactive: NCI-H226 25.3 µM | OVCAR-4 23.4 µM | HL-60 18.6 µM | IGROV-1 24.1 µM | MCF7 28.1 µM | Malme-3M 39.7 µM | TK-10 22.8 µM | HT-29 20.2 µM | OVCAR-5 14.9 µM | OVCAR-8 20.8 µM | UACC-257 18.1 µM | SN12C 17.1 µM | SK-MEL-28 20.3 µM | SF-295 15 µM | HCT-116 16.5 µM | NCI/ADR-RES 24.1 µM | OVCAR-3 19.5 µM | Hs-578T 16.6 µM

COCOc1cc(OC)ccc1C/C(=N/O)C(=O)OC
inactive: NCI-H226 > 100 µM | OVCAR-4 > 100 µM | HL-60 > 100 µM | IGROV-1 > 100 µM | MCF7 > 100 µM | Malme-3M > 100 µM | TK-10 > 100 µM | HT-29 > 100 µM | OVCAR-5 > 100 µM | OVCAR-8 > 100 µM | UACC-257 > 100 µM | SN12C > 100 µM | SK-MEL-28 > 100 µM | SF-295 > 100 µM | HCT-116 > 100 µM | NCI/ADR-RES > 100 µM | OVCAR-3 > 100 µM | Hs-578T > 100 µM

NC1CC(N)c2c(Br)sc(Br)c21 (stereo not given)
inactive: NCI-H226 77.1 µM | OVCAR-4 > 100 µM | IGROV-1 39.1 µM | MCF7 > 100 µM | Malme-3M > 100 µM | TK-10 > 100 µM | HT-29 > 100 µM | OVCAR-5 > 100 µM | HOP-92 28.6 µM | OVCAR-8 55.6 µM | UACC-257 > 100 µM | SN12C > 100 µM | SK-MEL-28 > 100 µM | SF-295 98.9 µM | HCT-116 87.9 µM | NCI/ADR-RES > 100 µM | OVCAR-3 > 100 µM | Hs-578T > 100 µM
